Results published in PubChem BioAssay AID1918937 (Molecular Pharmacology Branch, DTP, NCI, 2023).
“And” between values parts separate entries of the source, which are not always exact repeats. Equal values may be shown once.

System: 521955-158-R2-J5-PDC complex spheroid viability
Experiment: Anticancer human tumor 521955-158-R2-J5-PDC patient-derived pancreatic carcinoma cell line growth inhibition
Settings: for viability, T/C: stronger effect = lower value
Outline: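 Multicellular complex spheroids of tumor cells with human endothelial cells (HUVEC) and mesenchymal stem cells; the LSD1 inhibitor iadademstat was combined with standard-of-care or investigational agents. Top concentration at or near clinical Cmax, half-log dilutions; final DMSO ≤0.25%.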

[1] = curve of first compound, second compound 0.1 µM
[2] = curve of first compound, second compound 0.316 µM
[3] = curve of first compound, second compound 1 µM
[4] = curve of first compound, second compound 3.16 µM
[5] = curve of first compound, second compound 10 µM
[6] = second compound 0.1 µM, first compound 0.000316 µM
[7] = second compound 0.1 µM, first compound 0.001 µM
[8] = second compound 0.1 µM, first compound 0.00316 µM
[9] = second compound 0.1 µM, first compound 0.01 µM
[10] = second compound 0.1 µM, first compound 0.0316 µM
[11] = second compound 0.1 µM, first compound 0.1 µM
[12] = second compound 0.316 µM, first compound 0.000316 µM
[13] = second compound 0.316 µM, first compound 0.001 µM
[14] = second compound 0.316 µM, first compound 0.00316 µM
[15] = second compound 0.316 µM, first compound 0.01 µM
[16] = second compound 0.316 µM, first compound 0.0316 µM
[17] = second compound 0.316 µM, first compound 0.1 µM
[18] = second compound 1 µM, first compound 0.000316 µM
[19] = second compound 1 µM, first compound 0.001 µM
[20] = second compound 1 µM, first compound 0.00316 µM
[21] = second compound 1 µM, first compound 0.01 µM
[22] = second compound 1 µM, first compound 0.0316 µM
[23] = second compound 1 µM, first compound 0.1 µM
[24] = second compound 3.16 µM, first compound 0.000316 µM
[25] = second compound 3.16 µM, first compound 0.001 µM
[26] = second compound 3.16 µM, first compound 0.00316 µM
[27] = second compound 3.16 µM, first compound 0.01 µM
[28] = second compound 3.16 µM, first compound 0.0316 µM
[29] = second compound 3.16 µM, first compound 0.1 µM
[30] = second compound 10 µM, first compound 0.000316 µM
[31] = second compound 10 µM, first compound 0.001 µM
[32] = second compound 10 µM, first compound 0.00316 µM
[33] = second compound 10 µM, first compound 0.01 µM
[34] = second compound 10 µM, first compound 0.0316 µM
[35] = second compound 10 µM, first compound 0.1 µM
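Further: spheroids exposed to agents for seven days.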
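Wherever viability, T/C is given: percent of DMSO vehicle control luminescence viability.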

CC[C@@]1(O)C(=O)OCc2c1cc1n(c2=O)Cc2cc3c(CN(C)C)c(O)ccc3nc2-1 + NC1CCC(NC2CC2c2ccccc2)CC1
IC50 [1]: 4.87 nM
IC50 [2]: 4.89 nM
IC50 [3]: 4.35 nM
IC50 [4]: 4.78 nM
IC50 [5]: 4.55 nM
viability, T/C [6]: 100%
viability, T/C [7]: 104%
viability, T/C [8]: 72.3%
viability, T/C [9]: 12.8%
viability, T/C [10]: 7.11%
viability, T/C [11]: 5.58%
viability, T/C [12]: 101%
viability, T/C [13]: 97.2%
viability, T/C [14]: 72.9%
viability, T/C [15]: 12.2%
viability, T/C [16]: 6.01%
viability, T/C [17]: 4.82%
viability, T/C [18]: 97.3%
viability, T/C [19]: 97.5%
viability, T/C [20]: 64.7%
viability, T/C [21]: 11.7%
viability, T/C [22]: 6.84%
viability, T/C [23]: 5.45%
viability, T/C [24]: 96.7%
viability, T/C [25]: 94.9%
viability, T/C [26]: 70.5%
viability, T/C [27]: 13.2%
viability, T/C [28]: 6.25%
viability, T/C [29]: 4.49%
viability, T/C [30]: 104%
viability, T/C [31]: 105%
viability, T/C [32]: 67%
viability, T/C [33]: 13.1%
viability, T/C [34]: 6.18%
viability, T/C [35]: 4.49%

CC1(C)CCC(CN2CCN(c3ccc(C(=O)NS(=O)(=O)c4ccc(NCC5CCOCC5)c([N+](=O)[O-])c4)c(Oc4cnc5[nH]ccc5c4)c3)CC2)=C(c2ccc(Cl)cc2)C1
viability, T/C (compound 0.0316 µM): 103% and 110%
viability, T/C (compound 0.1 µM): 112% and 110%
viability, T/C (compound 0.316 µM): 107% and 115%
viability, T/C (compound 1 µM): 103% and 111%
viability, T/C (compound 3.16 µM): 62% and 73.6%
viability, T/C (compound 10 µM): 0.69% and 0.97%
IC50 (curve of compound): 3960 nM and 4600 nM

COc1ccc([C@@H](O)c2cc(-c3ncnc4cc(N5CCOCC5)ccc34)c(F)cc2Cl)nn1
viability, T/C (compound 0.0316 µM): 99.8% and 97.6%
viability, T/C (compound 0.1 µM): 87% and 104%
viability, T/C (compound 0.316 µM): 73.6% and 84.4%
viability, T/C (compound 1 µM): 57.1% and 63.2%
viability, T/C (compound 3.16 µM): 38.6% and 57.8%
viability, T/C (compound 10 µM): 22.4% and 24.5%
IC50 (curve of compound): 1550 nM and 3390 nM

CCN(c1cc(-c2ccc(CN3CCOCC3)cc2)cc(C(=O)NCc2c(C)cc(C)[nH]c2=O)c1C)C1CCOCC1 + NC1CC1c1ccc(-c2cccc(O)c2)cc1
IC50 [1]: > 3000 nM
IC50 [2]: > 3000 nM
IC50 [3]: > 3000 nM
IC50 [4]: > 3000 nM
IC50 [5]: > 3000 nM
viability, T/C (second compound 0.1 µM, first compound 0.00949 µM): 98.8%
viability, T/C (second compound 0.1 µM, first compound 0.03 µM): 96.3%
viability, T/C (second compound 0.1 µM, first compound 0.0949 µM): 87.4%
viability, T/C (second compound 0.1 µM, first compound 0.3 µM): 82.1%
viability, T/C (second compound 0.1 µM, first compound 0.949 µM): 86.8%
viability, T/C (second compound 0.1 µM, first compound 3 µM): 72.3%
viability, T/C (second compound 0.316 µM, first compound 0.00949 µM): 89%
viability, T/C (second compound 0.316 µM, first compound 0.03 µM): 85.2%
viability, T/C (second compound 0.316 µM, first compound 0.0949 µM): 82.4%
viability, T/C (second compound 0.316 µM, first compound 0.3 µM): 82.2%
viability, T/C (second compound 0.316 µM, first compound 0.949 µM): 82.2%
viability, T/C (second compound 0.316 µM, first compound 3 µM): 77.5%
viability, T/C (second compound 1 µM, first compound 0.00949 µM): 75.5%
viability, T/C (second compound 1 µM, first compound 0.03 µM): 88.3%
viability, T/C (second compound 1 µM, first compound 0.0949 µM): 88.4%
viability, T/C (second compound 1 µM, first compound 0.3 µM): 87.1%
viability, T/C (second compound 1 µM, first compound 0.949 µM): 79.8%
viability, T/C (second compound 1 µM, first compound 3 µM): 85.7%
viability, T/C (second compound 3.16 µM, first compound 0.00949 µM): 91.2%
viability, T/C (second compound 3.16 µM, first compound 0.03 µM): 91.6%
viability, T/C (second compound 3.16 µM, first compound 0.0949 µM): 92.4%
viability, T/C (second compound 3.16 µM, first compound 0.3 µM): 83.9%
viability, T/C (second compound 3.16 µM, first compound 0.949 µM): 70.9%
viability, T/C (second compound 3.16 µM, first compound 3 µM): 77.7%
viability, T/C (second compound 10 µM, first compound 0.00949 µM): 83.4%
viability, T/C (second compound 10 µM, first compound 0.03 µM): 110%
viability, T/C (second compound 10 µM, first compound 0.0949 µM): 92.2%
viability, T/C (second compound 10 µM, first compound 0.3 µM): 82.7%
viability, T/C (second compound 10 µM, first compound 0.949 µM): 80.3%
viability, T/C (second compound 10 µM, first compound 3 µM): 76.7%

Nc1ncn(C2CC(O)C(CO)O2)c(=O)n1 (stereo not given)
viability, T/C (compound 0.00316 µM): 99.5% and 107%
viability, T/C (compound 0.01 µM): 103% and 102%
viability, T/C (compound 0.0316 µM): 96.7% and 96.2%
viability, T/C (compound 0.1 µM): 81.8% and 84.8%
viability, T/C (compound 0.316 µM): 79% and 74.5%
viability, T/C (compound 1 µM): 64.4% and 52.7%
IC50 (curve of compound): > 1000 nM

NC1CCC(NC2CC2c2ccccc2)CC1 (stereo not given)
viability, T/C (compound 0.316 µM): 92.2% [middle of 4 runs]
IC50 (compound alone, run of 02/15/2022): > 10000 nM

NS(=O)(=O)OCC1CC(n2ccc3c(NC4CCc5ccccc54)ncnc32)CC1O (stereo not given)
viability, T/C (compound 0.00949 µM): 79% and 92.2%
viability, T/C (compound 0.03 µM): 51.8% and 75%
viability, T/C (compound 0.0949 µM): 24.6% and 38.1%
viability, T/C (compound 0.3 µM): 16.3% and 20.5%
viability, T/C (compound 0.949 µM): 14.1% and 15.6%
viability, T/C (compound 3 µM): 9.5% and 9.51%
IC50 (curve of compound): 31.9 nM and 67 nM

CC(C)CC(NC(=O)C(Cc1ccccc1)NC(=O)c1cnccn1)B(O)O (stereo not given) + NC1CCC(NC2CC2c2ccccc2)CC1
IC50 [1]: 0.491 nM
IC50 [2]: 0.468 nM
IC50 [3]: 0.509 nM
IC50 [4]: 0.525 nM
IC50 [5]: 0.512 nM
viability, T/C [6]: 80.7%
viability, T/C [7]: 0.24%
viability, T/C [8]: 0.24%
viability, T/C [9]: 0.06%
viability, T/C [10]: 0.05%
viability, T/C [11]: 0.94%
viability, T/C [12]: 75.7%
viability, T/C [13]: 0.23%
viability, T/C [14]: 0.12%
viability, T/C [15]: 0.04%
viability, T/C [16]: 0.07%
viability, T/C [17]: 0.21%
viability, T/C [18]: 84.9%
viability, T/C [19]: 0.24%
viability, T/C [20]: 0.06%
viability, T/C [21]: 0.04%
viability, T/C [22]: 0.09%
viability, T/C [23]: 0.2%
viability, T/C [24]: 88.1%
viability, T/C [25]: 0.24%
viability, T/C [26]: 0.12%
viability, T/C [27]: 0.04%
viability, T/C [28]: 0.06%
viability, T/C [29]: 5.74%
viability, T/C [30]: 82.9%
viability, T/C [31]: 4.43%
viability, T/C [32]: 0.22%
viability, T/C [33]: 0.39%
viability, T/C [34]: 0.18%
viability, T/C [35]: 0.72%

CC(C)c1c(-c2ccccc2)nc2c(C#N)c[nH]n2c1=O + NC1CCC(NC2CC2c2ccccc2)CC1
IC50 [1]: > 10000 nM
IC50 [2]: > 10000 nM
IC50 [3]: > 10000 nM
IC50 [4]: > 10000 nM
IC50 [5]: > 10000 nM
viability, T/C [10]: 87.4%
viability, T/C [11]: 89.5%
viability, T/C (second compound 0.1 µM, first compound 0.316 µM): 88.8%
viability, T/C (second compound 0.1 µM, first compound 1 µM): 84.7%
viability, T/C (second compound 0.1 µM, first compound 3.16 µM): 79%
viability, T/C (second compound 0.1 µM, first compound 10 µM): 68.2%
viability, T/C [16]: 84.9%
viability, T/C [17]: 85.5%
viability, T/C (second compound 0.316 µM, first compound 0.316 µM): 89.2%
viability, T/C (second compound 0.316 µM, first compound 1 µM): 78.3%
viability, T/C (second compound 0.316 µM, first compound 3.16 µM): 70.9%
viability, T/C (second compound 0.316 µM, first compound 10 µM): 65%
viability, T/C [22]: 86.3%
viability, T/C [23]: 83.6%
viability, T/C (second compound 1 µM, first compound 0.316 µM): 89.4%
viability, T/C (second compound 1 µM, first compound 1 µM): 81.7%
viability, T/C (second compound 1 µM, first compound 3.16 µM): 76.3%
viability, T/C (second compound 1 µM, first compound 10 µM): 62.9%
viability, T/C [28]: 90%
viability, T/C [29]: 86.7%
viability, T/C (second compound 3.16 µM, first compound 0.316 µM): 89.1%
viability, T/C (second compound 3.16 µM, first compound 1 µM): 85.1%
viability, T/C (second compound 3.16 µM, first compound 3.16 µM): 74.2%
viability, T/C (second compound 3.16 µM, first compound 10 µM): 59.6%
viability, T/C [34]: 87.8%
viability, T/C [35]: 84.3%
viability, T/C (second compound 10 µM, first compound 0.316 µM): 80.7%
viability, T/C (second compound 10 µM, first compound 1 µM): 79.2%
viability, T/C (second compound 10 µM, first compound 3.16 µM): 66.2%
viability, T/C (second compound 10 µM, first compound 10 µM): 54.5%
